Where a name gives a salt, the structure may show the parent alone.
Assays:
diabetic rat model = test: Evaluation tests for lowering glycated hemoglobin (HbA1c) and blood lipid in diabetic rats (high-lipid emulsion + streptozotocin); format: in vivo, Sprague-Dawley (SD) rats; conditions: positive control group, metformin hydrochloride solution, intragastric once per day for 8 weeks
Method: Evaluation tests for lowering glycated hemoglobin (HbA1c) were described below.
Healthy male Sprague-Dawley (SD) rats with a body weight of 185-225 g were selected and fed adaptively for one week. After adaptive feeding, the SD rats were randomly divided into six groups each for 20 rats. One of the six groups was selected as a blank control group, and fed with ordinary feed. The rest five groups were subjected to intragastric administration with high-lipid emulsion for 10 mL/kg per day for 1 month. After the last feeding, rats were fasted for 12 h expect for water. The rats fed with high-lipid emulsion were subjected to disposable intraperitoneal injection with streptozotocin STZ solution for 25 mg/kg to establish a diabetic rat model. After streptozotocin injection for 72 h, the rats were fasted for 12 h expect for water and was taken blood samples from the tail to detect fasting blood sugar. The rat with a fasting blood glucose>10.0 mmol/L was considered as a successful model. The blank control group was intraperitoneally injected with citric acid-sodium citrate buffer solution.
The rats that were successfully modeled were randomly divided into model group, positive control group, low-dose group, medium-dose group and high-dose group according to blood sugar and body weight, with 20 rats in each group. […]

diabetic animal model = test: Evaluation tests for lowering blood sugar (urine sugar, fasting blood sugar) in streptozotocin rats; format: in vivo; conditions: positive control group, metformin hydrochloride solution, intragastric once per day for 15 days
Method: Evaluation tests for lowering blood sugar were described below.
100 of healthy male rats were selected, numbered and fed adaptively in normal environment for 2 weeks, and free to eat and drink.
After adaptive feeding, the rats were randomly divided into 5 groups with 20 rats in each group. Only one group was selected as the blank control group, the rest groups were subjected to disposable intraperitoneal injection with 5% streptozotocin STZ solution for 200 mg/kg. If there were coma among those rats within 2 h, glucose sugar solution was fed until awake. Two days later, the fasting blood sugar was detected. The rat with a blood sugar of more than 10 was selected as a diabetic animal model.
The rats that were successfully modeled were randomly divided into model group, positive control group, low-dose group, medium-dose group and high-dose group according to blood sugar and body weight, with 20 rats in each group. The polysaccharide-peptide composites prepared in Examples 1-3 were diluted with water into intragastric solutions, which were fed to the low-dose group for 1.0 g/kg, the medium-dose group for 2.0 g/kg and the high-dose group for 3.0 g/kg, respectively. […]
During the experiment, rats of each group were […] every day for 15 consecutive days. […] At the end of the experiment, the final blood sugar content was recorded.

high-lipid model rats = test: Evaluation tests for lowering blood lipid (TC, TG) in rats given high lipid diet; format: in vivo; conditions: positive control group, simvastatin solution 50 mg/kg bw d, intragastric
Source text: Evaluation tests for lowering blood lipid were described below. 60 of healthy male rats were selected, numbered and fed adaptively in normal environment for 2 weeks, and free to eat and drink. After the adaptive feeding, the rats were randomly divided into 6 groups with 10 rats in each group, consisting of a blank control group, a high-lipid model group, a positive treatment group, a high-dose group, a medium-dose group and a low-dose group. Except the blank control group, the other groups were given high lipid diet. The polysaccharide-peptide composites prepared in this application and simvastatin were respectively diluted. The positive control group was given simvastatin solution by intragastric administration for 50 mg/kg bw d, and the high, medium and low-dose groups were given polysaccharide-peptide solutions for 100 mg/kg bw d, 50 mg/kg bw d and 25 mg/kg bw d, respectively. Other groups were intragastric with corresponding volume of distilled water. The treatment period lasted for 4 weeks.

| SMILES | Content of blood lipid (diabetic rat model; model group 3.29 ± 0.58) [mmol/L] | Content of HbA1c (diabetic rat model; model group 50.78 ± 3.76) [ng/mL] | Content of urine sugar (diabetic animal model; model group 1.74 ± 0.56) [mmol/L] | Content of fasting blood sugar (diabetic animal model; model group 14.86 ± 2.38) [mmol/L] | Content of TG (high-lipid model rats; model group 0.57 ± 0.18) [mmol/L] | Content of TC (high-lipid model rats; model group 3.41 ± 0.58) [mmol/L] |
| --- | --- | --- | --- | --- | --- | --- |
| CN(C)C(=N)N=C(N)N [metformin hydrochloride] | 2.52 ± 0.24 | 35.14 ± 1.25 | 1.44 ± 0.23 | 8.55 ± 1.37 | – | – |
| CCC(C)(C)C(=O)O[C@H]1C[C@@H](C)C=C2C=C[C@H](C)[C@H](CC[C@@H]3C[C@@H](O)CC(=O)O3)[C@H]21 [simvastatin] | – | – | – | – | 0.32 ± 0.14 | 2.59 ± 0.24 |

Source: US20220323554A1, “POLYSACCHARIDE-PEPTIDE COMPLEX FOR LOWERING BLOOD SUGAR, BLOOD LIPID AND GLYCOSYLATED HEMOGLOBIN LEVELS, AND PREPARATION METHOD” (CHINA YUNHONG HOLDINGS CO., LTD., priority 2019, published 2022)
